Test results reported in PubChem BioAssay AID2060912 (Molecular Pharmacology Branch, DTP, NCI, 2025).

Test system: HUVEC/MSC spheroids viability
Test: Human HUVEC/MSC cell line growth inhibition [KRAS2];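 on viability, T/C: percent of DMSO vehicle control luminescence so 100% = untreated viability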
Conditions: for IC50: curve of first compound; for viability, T/C: stronger effect = lower value
How it was run: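 Spheroids of human HUVEC plus MSCs, without tumor cells, were treated with single agents and combinations. Each drug was tested in half-log steps down from near its clinical Cmax, or from 10 microM when Cmax was unknown. HUVEC and hMSC were used at passage </=5.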

Structure (SMILES): Cn1ncnc1[C@H]1c2n[nH]c(=O)c3cc(F)cc(c23)N[C@@H]1c1ccc(F)cc1 + C=CC(=O)N1CCN(c2nc(OCC3CCCN3C)nc3c2CCN(c2cccc4cccc(C)c24)C3)CC1CC#N
- IC50 (second compound 0.00949 µM): > 100 nM
- IC50 (second compound 0.03 µM): > 100 nM
- IC50 (second compound 0.0949 µM): > 100 nM
- IC50 (second compound 0.3 µM): > 100 nM
- IC50 (second compound 0.949 µM): > 100 nM
- IC50 (second compound 3 µM): > 100 nM
- viability, T/C (second compound 0.00949 µM, first compound 0.000316 µM): 88%
- viability, T/C (second compound 0.00949 µM, first compound 0.001 µM): 103%
- viability, T/C (second compound 0.00949 µM, first compound 0.00316 µM): 85.6%
- viability, T/C (second compound 0.00949 µM, first compound 0.01 µM): 66.3%
- viability, T/C (second compound 0.00949 µM, first compound 0.0316 µM): 84.8%
- viability, T/C (second compound 0.00949 µM, first compound 0.1 µM): 85.2%
- viability, T/C (second compound 0.03 µM, first compound 0.000316 µM): 96.5%
- viability, T/C (second compound 0.03 µM, first compound 0.001 µM): 75.2%
- viability, T/C (second compound 0.03 µM, first compound 0.00316 µM): 77.3%
- viability, T/C (second compound 0.03 µM, first compound 0.01 µM): 77.9%
- viability, T/C (second compound 0.03 µM, first compound 0.0316 µM): 95.6%
- viability, T/C (second compound 0.03 µM, first compound 0.1 µM): 86.4%
- viability, T/C (second compound 0.0949 µM, first compound 0.000316 µM): 86.7%
- viability, T/C (second compound 0.0949 µM, first compound 0.001 µM): 100%
- viability, T/C (second compound 0.0949 µM, first compound 0.00316 µM): 75%
- viability, T/C (second compound 0.0949 µM, first compound 0.01 µM): 81.2%
- viability, T/C (second compound 0.0949 µM, first compound 0.0316 µM): 82.6%
- viability, T/C (second compound 0.0949 µM, first compound 0.1 µM): 78.6%
- viability, T/C (second compound 0.3 µM, first compound 0.000316 µM): 78.3%
- viability, T/C (second compound 0.3 µM, first compound 0.001 µM): 90.9%
- viability, T/C (second compound 0.3 µM, first compound 0.00316 µM): 75.7%
- viability, T/C (second compound 0.3 µM, first compound 0.01 µM): 71.9%
- viability, T/C (second compound 0.3 µM, first compound 0.0316 µM): 72.7%
- viability, T/C (second compound 0.3 µM, first compound 0.1 µM): 86.2%
- viability, T/C (second compound 0.949 µM, first compound 0.000316 µM): 61.8%
- viability, T/C (second compound 0.949 µM, first compound 0.001 µM): 74.2%
- viability, T/C (second compound 0.949 µM, first compound 0.00316 µM): 78.8%
- viability, T/C (second compound 0.949 µM, first compound 0.01 µM): 65.7%
- viability, T/C (second compound 0.949 µM, first compound 0.0316 µM): 74.9%
- viability, T/C (second compound 0.949 µM, first compound 0.1 µM): 63.1%
- viability, T/C (second compound 3 µM, first compound 0.000316 µM): 96.7%
- viability, T/C (second compound 3 µM, first compound 0.001 µM): 80.2%
- viability, T/C (second compound 3 µM, first compound 0.00316 µM): 88.3%
- viability, T/C (second compound 3 µM, first compound 0.01 µM): 88.5%
- viability, T/C (second compound 3 µM, first compound 0.0316 µM): 77.6%
- viability, T/C (second compound 3 µM, first compound 0.1 µM): 83.9%
